This is an account of results in ChEMBL document CHEMBL5131517 (ACS Med Chem Lett, 2022).

Usually EC50 stands for the concentration needed to bring the measured effect to its halfway point. In general, Emax refers to the size of the effect at its maximum, as opposed to the concentration needed.

Data set [1] is described as follows: Drug metabolism in BALB/c mouse liver microsome S9 fraction assessed as [M+16] metabolite formation prewarmed for 5 mins followed by NADPH addition measured over 1 hrs by LCMS analysis. Format: ADME. Particulars: microsomes, 1.083 h, time 65 min. On the technique in general: Microsomes from liver hold many membrane-bound enzymes, among them those of drug oxidation.

Data set [2] addresses T1, 5-hydroxytryptamine receptor 2A (Homo sapiens, UniProt P28223). In words: Agonist activity at human 5HT2A receptor stably expressed in Flp-In-T-REx-293 cells assessed as increase in Gq-mediated calcium flux by Fluo-4 direct dye based FLIPR Tetra assay. Format: functional, cell-based. In general terms: A change in cytosolic calcium serves as a functional read-out for many receptors and channels.

For data set [3], the target named is T1, 5-hydroxytryptamine receptor 2A. In words: Agonist activity at human 5HT2A receptor stably expressed in Flp-In-T-REx-293 cells assessed as maximal Gq-mediated calcium flux by Fluo-4 direct dye based FLIPR Tetra assay relative to control. The format is functional, cell-based.
The target in data set [4] is T2, 5-hydroxytryptamine receptor 2C (Homo sapiens, UniProt P28335).
T2 sequence (P28335 whole entry): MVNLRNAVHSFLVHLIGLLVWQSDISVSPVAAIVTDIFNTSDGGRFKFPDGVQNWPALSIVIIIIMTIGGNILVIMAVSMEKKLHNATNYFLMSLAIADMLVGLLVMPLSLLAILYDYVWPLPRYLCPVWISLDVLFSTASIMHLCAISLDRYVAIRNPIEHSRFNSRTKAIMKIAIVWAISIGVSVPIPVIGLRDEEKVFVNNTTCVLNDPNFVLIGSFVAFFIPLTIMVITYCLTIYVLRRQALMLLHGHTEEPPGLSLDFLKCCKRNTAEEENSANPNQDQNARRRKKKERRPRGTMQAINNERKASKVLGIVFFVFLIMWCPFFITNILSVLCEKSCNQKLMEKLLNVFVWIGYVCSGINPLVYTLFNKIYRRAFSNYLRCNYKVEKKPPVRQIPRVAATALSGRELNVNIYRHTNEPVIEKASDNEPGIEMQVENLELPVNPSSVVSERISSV
In words: Agonist activity at human 5HT2C receptor stably expressed in Flp-In-T-REx-293 cells assessed as increase in Gq-mediated calcium flux by Fluo-4 direct dye based FLIPR Tetra assay. Format: functional, cell-based. Particulars: read-out: EC50.

In data set [5] the target is T3, 5-hydroxytryptamine receptor 2C (Homo sapiens) (UniProt P28335).
T3 sequence (whole entry): T2 sequence (P28335 whole entry)
As to the kind of experiment: Agonist activity at human 5HT2C receptor stably expressed in Flp-In-T-REx-293 cells assessed as maximal Gq-mediated calcium flux by Fluo-4 direct dye based FLIPR Tetra assay relative to control. The format is functional, cell-based. Particulars: filed as agonist.

For data set [6], the target named is T4, 5-hydroxytryptamine receptor 2B (Homo sapiens, UniProt P41595). In words: Agonist activity at human 5HT2B receptor stably expressed in Flp-In-T-REx-293 cells assessed as increase in Gq-mediated calcium flux by Fluo-4 direct dye based FLIPR Tetra assay. The format is functional, cell-based. The note with it: read-out: EC50.
The target in data set [7] is T4, 5-hydroxytryptamine receptor 2B. As to the kind of experiment: Agonist activity at human 5HT2B receptor stably expressed in Flp-In-T-REx-293 cells assessed as maximal Gq-mediated calcium flux by Fluo-4 direct dye based FLIPR Tetra assay relative to control. The format is functional, cell-based.

T1 sequence (P28223 whole entry): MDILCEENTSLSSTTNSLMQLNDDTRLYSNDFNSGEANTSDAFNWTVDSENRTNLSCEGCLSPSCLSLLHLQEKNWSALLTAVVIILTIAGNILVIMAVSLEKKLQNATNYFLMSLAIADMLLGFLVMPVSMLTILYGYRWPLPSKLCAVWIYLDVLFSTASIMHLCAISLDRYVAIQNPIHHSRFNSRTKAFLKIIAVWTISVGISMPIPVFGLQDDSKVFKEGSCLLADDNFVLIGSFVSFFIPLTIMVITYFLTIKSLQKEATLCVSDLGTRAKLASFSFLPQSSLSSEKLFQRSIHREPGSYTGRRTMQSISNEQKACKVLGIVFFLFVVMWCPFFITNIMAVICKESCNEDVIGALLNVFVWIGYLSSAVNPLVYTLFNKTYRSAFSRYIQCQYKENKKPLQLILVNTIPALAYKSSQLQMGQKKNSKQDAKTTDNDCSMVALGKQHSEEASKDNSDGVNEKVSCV
T4 sequence (P41595 whole entry): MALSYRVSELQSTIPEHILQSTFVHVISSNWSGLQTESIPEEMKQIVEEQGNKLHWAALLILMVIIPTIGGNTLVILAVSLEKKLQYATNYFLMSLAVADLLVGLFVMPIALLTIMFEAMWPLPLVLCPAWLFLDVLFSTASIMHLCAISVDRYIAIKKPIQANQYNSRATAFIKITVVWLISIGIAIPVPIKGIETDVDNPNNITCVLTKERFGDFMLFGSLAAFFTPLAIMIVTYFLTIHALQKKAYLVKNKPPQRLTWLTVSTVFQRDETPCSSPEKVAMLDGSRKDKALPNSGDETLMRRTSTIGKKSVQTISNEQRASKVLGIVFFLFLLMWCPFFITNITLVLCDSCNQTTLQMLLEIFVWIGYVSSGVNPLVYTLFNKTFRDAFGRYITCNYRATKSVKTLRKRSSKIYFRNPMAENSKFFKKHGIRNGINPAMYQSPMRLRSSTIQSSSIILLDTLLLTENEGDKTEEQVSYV

As for RAUWOLFIA SERPENTINA, the Drug metabolism entry in data set [1] was “Metabolite_Detected”.

Regarding `Oc1ccc(Br)cc1C1NCCc2c1[nH]c1ccc(F)cc21` (configuration not stated), the concentration for a half-maximal effect (EC50) in data set [2] turned out to be 1110 nM; in data set [4] it was 376 nM; in data set [6], 338 nM. The Emax in data set [3] (filed as agonist) was determined as 80.8%; in data set [5], 101%; in data set [7] (filed as agonist), 111%.

Regarding `COc1ccc(C2NCCc3c2[nH]c2ccc(F)cc32)c(OC)c1` (configuration not stated), the concentration for a half-maximal effect (EC50) in data set [2] was determined as 167 nM; in data set [4], 159 nM; in data set [6], 98 nM. Further, the maximal response (Emax) amounted to 45.6% in data set [3] (filed as agonist), 100% in data set [5] and 91.3% in data set [7] (filed as agonist).

On to `Cc1ccc(C2NCCc3c2[nH]c2ccc(Cl)cc32)c(C)c1` (configuration not stated), for which the values for the EC50 in data set [2], in data set [4] and in data set [6] were 562 nM, 407 nM and 977 nM, respectively. Moreover, the Emax was found to be 69.8% in data set [3] (filed as agonist), 99.2% in data set [5] and 89.4% in data set [7] (filed as agonist).

Regarding `Oc1ccc(O)c(C2NCCc3c2[nH]c2ccc(F)cc32)c1` (configuration not stated), the EC50 in data set [2] came out at 72 nM; in data set [4] it was 42 nM; in data set [6] it was 25 nM. The Emax in data set [3] (filed as agonist) worked out at 95.2%; in data set [5], 120%; in data set [7] (filed as agonist) it was 102%.

`Oc1ccc(Br)cc1C1NCCc2c1[nH]c1ccc(Cl)cc21` (configuration not stated): the 50% effective concentration (EC50) is 812 nM in data set [2], 1320 nM in data set [4] and 457 nM in data set [6]. Besides, the Emax in data set [3] (filed as agonist) turned out to be 79.7%; in data set [5], 95.2%; in data set [7] (filed as agonist), 111%.

Turning to `Oc1c(Cl)cccc1C1NCCc2c1[nH]c1ccc(F)cc21` (configuration not stated), the EC50 in data set [2] was 273 nM; in data set [4], 78 nM; in data set [6], 88 nM. In addition, the maximal effect (Emax) in data set [3] (filed as agonist) is 65.3%; in data set [5], 99.2%; in data set [7] (filed as agonist), 96.2%.

For `Oc1cc(Cl)ccc1C1NCCc2c1[nH]c1ccc(F)cc21` (configuration not stated), the 50% effective concentration (EC50) in data set [2] worked out at 229 nM; in data set [4], 209 nM; in data set [6], 128 nM. The Emax worked out at 73.2% in data set [3] (filed as agonist), 107% in data set [5] and 105% in data set [7] (filed as agonist).

With `COc1ccc(OC)c(C2NCCc3c2[nH]c2ccc(Cl)cc32)c1` (configuration not stated), the concentration for a half-maximal effect (EC50) in data set [2] was found to be 1820 nM; in data set [4], 2690 nM; in data set [6], 416 nM. For the same compound, the Emax in data set [3] is 14.4%; in data set [5], 42.4%; in data set [7], 32%.

For `Cc1ccc(C2NCCc3c2[nH]c2ccc(F)cc32)c(C)c1` (configuration not stated), the EC50 in data set [2] came out at 363 nM; in data set [4], 159 nM; in data set [6] it was 537 nM. Besides, the maximal response (Emax) in data set [3] (filed as agonist) was found to be 47.8%; in data set [5], 104%; in data set [7] (filed as agonist), 107%.

For the compound `COc1ccc(C2NCCc3c2[nH]c2ccc(F)cc32)cc1OC` (configuration not stated), the EC50 in data set [2] stood at 254 nM; in data set [4], 152 nM; in data set [6] it was 102 nM. Further, the maximal effect (Emax) stood at 83.2% in data set [3] (filed as agonist), 103% in data set [5] and 89.8% in data set [7] (filed as agonist).

In the case of `COc1ccc(C2NCCc3c2[nH]c2ccc(Cl)cc32)cc1OC` (configuration not stated), the results for the EC50 in data set [2], in data set [4] and in data set [6] were 81 nM, 123 nM and 34 nM, respectively. Besides, the results for the maximum response (Emax) in data set [3] (filed as agonist), in data set [5] and in data set [7] (filed as agonist) were 96%, 99.3% and 102%, respectively.
